Tests used:
[1] = system: STZ induced diabetic model; test: Plasma glucose level in streptozocin (STZ) induced diabetic rats, 15 days treatment; type: in vivo, Male albino rats of wistar strains; conditions: n=6, glibenclamide 3 mg/Kg
Experimental: Male albino rats of wistar strains (150-200 g) were used throughout the studies. Rats were divided into eleven groups of each containing 6 rats. These animals were randomly assigned to the following groups which include (A) control group, (B) standard group (glibenclamide, 3 mg/Kg) and (C) test groups (F1-F9). Diabetes was induced by injecting streptozocin (STZ) in a dose of 65 mg/kg intra venous in 0.1M citrate buffer. Rats were kept fasted overnight but were given water ad libitum. After 48 hours of STZ injection, blood samples were taken from tail vein of conscious rats. The blood was centrifuged at 5000 rpm for 10 minutes in an eppendorf tubes containing EDTA (1 mg/ml of blood). Plasma glucose estimations were done by glucose oxidase method by using Auto blood analyzer (Techinicon RA-100, Bayer Diagnostics, Ireland). Animals with blood glucose level more than 250% of the fasting level were considered to be diabetic and were used for the experiment. Group A was given normal saline, group B was given glibenclamide and various groups of C were given herbal compositions for 15 days at least once in day. Blood was collected from tail veins of all the rats after 7 days and 15 days of treatment and glucose levels were estimated as described previously (Table 2). The statistical analysis was performed using Prism program (Graphpad software). […]

[2] = system: oral glucose tolerance in rats; test: Glucose Tolerance Test (GTT) in rats; type: in vivo, Male albino rats of wistar strains; conditions: rats loaded with glucose 5 g/kg 2 hours after dosing; P<0.05; glibenclamide 3 mg/Kg
Text: Brief description of the accompanying drawings: Figure-1. Describes the effect of herbal formulation and glibenclamide on oral glucose tolerance tests in rats. From the above STZ induced diabetic model the composition 1 has chosen for GTT study. Male albino rats of wistar strains (150-200 g) were used. They were divided into three groups each containing 6 rats. They were randomly assigned A) control group B) standard group (glibenclamide) C) test group. Group A was given saline, group B was given glibenclamide (3 mg/Kg) and group C was given test compositions. After 2 hours all rats were loaded with glucose with a dose of 5 g/kg. Blood samples were taken from tail vein of conscious rats for every 30 minutes up to 3 hours. Plasma glucose estimations were done by glucose oxidase method by using Auto Blood Analyzer as described in FIG. 1. The statistical analysis was performed using Prism program (Graphpad software). Annova with post Newman—Keul test with P values was used to compare the treatment efficacy between the test groups.

In the case of COc1ccc(Cl)cc1C(=O)NCCc1ccc(S(=O)(=O)NC(=O)NC2CCCCC2)cc1 [Glibenclamide], the “% reduction in glucose levels” value ([1]; Day 7th of treatment) was 27 ± 2.6%, the “% reduction in glucose levels” value ([1]; Day 15th of treatment) was 38 ± 2.9% and the “glucose tolerance compared to control group” value [2] was “increased”.
